For the test, the target named is T1, mGluR5 receptor (pig) (Sus scrofa, UniProt I3LUI7).
T1 construct: 450 μg protein from brain homogenate is incubated with 5 nM ^3[H]-MPEP; from tissue; host or cells: pig brain halves without medulla, cerebellum and pons
As to the kind of experiment: [3H]-MPEP bond in the mGluR5 receptor bond assay (pig brain homogenate). The test is classed as binding. Particulars: 5 nM [3H]-MPEP; for inhibition at 10 µM: 10 μM test compound, 450 μg protein pig brain homogenate, 60 min room temperature; for IC50: pig brain homogenate. The method, then:
I. Method for Determining the Inhibition of the [^3H]-MPEP Bond in the mGluR5 Receptor Bond Assay
Pig brain homogenate is produced by homogenisation (Polytron PT 3000, Kinematica AG, 10,000 rpm for 90 seconds) of pig brain halves without medulla, cerebellum and pons in buffer pH 8.0 (30 mM Hepes, Sigma, order no. H3375+1 tablet complete to 100 ml, Roche Diagnostics, order no. 1836145) in the ratio 1:20 (brain weight/volume) and differential centrifugation at 900×g and 40,000×g. In each case, 450 μg protein from brain homogenate is incubated with 5 nM ^3[H]-MPEP (Tocris, order no. […]
Thereafter, the batches are filtered with the help of a Brandel Cell Harvester (Brandel, TYP Robotic 9600) on unifilter plates with glass fibre filter mats (Perkin Elmer, order no. 6005177) and subsequently washed with buffer (as above) 3 times with in each case 250 μl per sample. The filter plates are subsequently dried for 60 min at 55° C. 30 μL Ultima Gold™ scintillator (Packard BioScience, order no. 6013159) is subsequently added per well and the samples are measured after 3 hours on the β-counter (Mikrobeta, Perkin Elmer). The unspecific bond is determined by addition of 10 μM MPEP (Tocris, order no. 1212).

Structures are written as SMILES.

The results in this text go back to patent US20090182020A1, “SUBSTITUTED BIS(HETERO)AROMATIC N--ETHYLPROPIOLAMIDES AND USE THEREOF FOR PRODUCTION OF MEDICAMENTS” (GRUNENTHAL GMBH, priority 2005, published 2009).

T1 sequence (I3LUI7 19-1212): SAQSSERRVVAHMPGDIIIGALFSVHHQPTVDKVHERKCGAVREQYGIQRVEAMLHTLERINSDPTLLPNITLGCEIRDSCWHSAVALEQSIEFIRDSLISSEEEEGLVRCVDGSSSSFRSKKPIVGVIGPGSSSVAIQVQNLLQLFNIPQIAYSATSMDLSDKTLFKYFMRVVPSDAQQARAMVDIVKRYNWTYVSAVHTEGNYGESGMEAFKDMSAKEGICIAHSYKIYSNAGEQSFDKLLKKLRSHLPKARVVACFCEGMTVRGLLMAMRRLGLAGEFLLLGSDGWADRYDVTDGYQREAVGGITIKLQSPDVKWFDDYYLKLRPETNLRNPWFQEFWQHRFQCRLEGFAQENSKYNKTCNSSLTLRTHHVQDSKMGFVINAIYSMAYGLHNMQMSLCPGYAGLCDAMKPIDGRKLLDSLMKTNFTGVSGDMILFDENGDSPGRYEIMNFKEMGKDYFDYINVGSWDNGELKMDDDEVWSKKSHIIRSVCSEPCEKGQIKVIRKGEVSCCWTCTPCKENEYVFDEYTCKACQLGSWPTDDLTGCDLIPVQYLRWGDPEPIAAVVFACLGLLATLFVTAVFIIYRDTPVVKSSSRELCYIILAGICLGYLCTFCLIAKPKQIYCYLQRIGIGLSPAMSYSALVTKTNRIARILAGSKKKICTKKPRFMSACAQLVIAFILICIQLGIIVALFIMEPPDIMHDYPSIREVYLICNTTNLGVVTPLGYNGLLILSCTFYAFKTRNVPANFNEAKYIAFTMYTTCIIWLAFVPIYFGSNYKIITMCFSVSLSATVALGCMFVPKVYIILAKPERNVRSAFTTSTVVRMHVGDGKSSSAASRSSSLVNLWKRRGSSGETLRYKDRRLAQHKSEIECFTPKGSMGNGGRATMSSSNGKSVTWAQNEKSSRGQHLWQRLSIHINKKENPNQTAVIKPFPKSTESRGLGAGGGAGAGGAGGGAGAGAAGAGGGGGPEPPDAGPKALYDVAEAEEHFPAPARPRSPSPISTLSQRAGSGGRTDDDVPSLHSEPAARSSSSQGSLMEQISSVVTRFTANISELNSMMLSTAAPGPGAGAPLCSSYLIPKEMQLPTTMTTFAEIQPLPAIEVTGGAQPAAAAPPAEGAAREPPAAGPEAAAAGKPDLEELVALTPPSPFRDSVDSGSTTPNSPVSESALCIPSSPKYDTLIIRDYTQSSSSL

What is called inhibition is the change of the read-out against control, counted positive when it falls. Compound `COc1ccccc1CCNC(=O)C#Cc1cccc(C#N)c1` [Example 191, 3-(3-cyanophenyl)-N-(2-methoxyphenethyl)propiolamide] gave an inhibition at 10 µM of 96%. Still for that read-out and setting: the result for `N#Cc1cccc(C#CC(=O)NCCc2ccc(Cl)cc2)c1` [Example 192, N-(4-chlorophenethyl)-3-(3-cyanophenyl)propiolamide] reads 91%. The same measure, in the same setting: the value for `COc1ccccc1CCNC(=O)C#Cc1ccc(F)cc1F` [Example 193, 3-(2,4-difluorophenyl)-N-(2-methoxyphenethyl)propiolamide] was 31%; that for `COc1ccccc1CCNC(=O)C#Cc1ccccc1F` [Example 194, 3-(2-fluorophenyl)-N-(2-methoxyphenethyl)propiolamide] was 81%.

As usually defined, the IC50 is the concentration needed to halve the response being measured. A higher IC50 goes with weaker potency. On to `O=C(C#Cc1cccc(Cl)c1)NCCc1ccccc1F` [Example 215, 3-(3-chlorophenyl)-N-(2-fluorophenethyl)propiolamide], for which the half-inhibitory concentration (IC50) turned out to be 9 nM. The same measure, in the same setting: the value for `O=C(C#Cc1cccc(Cl)c1)NCCc1cccc(F)c1` [Example 216, 3-(3-chlorophenyl)-N-(3-fluorophenethyl)propiolamide] was 12 nM. Turning to `O=C(C#Cc1cccc(Cl)c1)NCCc1ccc(F)cc1` [Example 217, 3-(3-chlorophenyl)-N-(4-fluorophenethyl)propiolamide], the half-maximal inhibitory concentration (IC50) stood at 140 nM. Same read-out and setting: the result for `CN(CCc1ccccc1F)C(=O)C#Cc1cccc(Cl)c1` [Example 218, 3-(3-chlorophenyl)-N-(2-fluorophenethyl)-N-methylpropiolamide] reads 16 nM; that for `O=C(C#Cc1cccc(Cl)c1)NCCc1cccc(C(F)(F)F)c1` [Example 219, 3-(3-chlorophenyl)-N-(3-(trifluoromethyl)phenethyl)propiolamide], 450 nM; that for `CN(CCc1ccc(F)cc1)C(=O)C#Cc1cccc(Cl)c1` [Example 220, 3-(3-chlorophenyl)-N-(4-fluorophenethyl)-N-methylpropiolamide], 9 nM.

`CN(CCc1cccc(F)c1)C(=O)C#Cc1cccc(Cl)c1` [Example 221, 3-(3-chlorophenyl)-N-(3-fluorophenethyl)-N-methylpropiolamide] came in with an IC50 of 8 nM. Turning to `CN(CCc1cccc(C(F)(F)F)c1)C(=O)C#Cc1cccc(Cl)c1` [Example 222, 3-(3-chlorophenyl)-N-methyl-N-(3-(trifluoromethyl)phenethyl)propiolamide], the half-inhibitory concentration (IC50) came out at 75 nM. `Cc1ccccc1CCNC(=O)C#Cc1cccc(Cl)c1` [Example 223, 3-(3-chlorophenyl)-N-(2-methylphenethyl)propiolamide] came in with an IC50 of 13 nM. Take `Cc1cccc(CCNC(=O)C#Cc2cccc(Cl)c2)c1` [Example 224, 3-(3-chlorophenyl)-N-(3-methylphenethyl)propiolamide]: the 50% inhibitory concentration (IC50) came out at 40 nM. Consider `Cc1ccc(CCNC(=O)C#Cc2cccc(Cl)c2)cc1` [Example 225, 3-(3-chlorophenyl)-N-(4-methylphenethyl)propiolamide], for which the IC50 is 210 nM. The same measure, in the same setting: the value for `Cc1ccccc1CCN(C)C(=O)C#Cc1cccc(Cl)c1` [Example 226, 3-(3-chlorophenyl)-N-methyl-N-(2-methylphenethyl)propiolamide] was 8 nM. Same read-out and setting: the value for `Cc1cccc(CCN(C)C(=O)C#Cc2cccc(Cl)c2)c1` [Example 227, 3-(3-chlorophenyl)-N-methyl-N-(3-methylphenethyl)propiolamide] was 15 nM; that for `Cc1ccc(CCN(C)C(=O)C#Cc2cccc(Cl)c2)cc1` [Example 228, 3-(3-chlorophenyl)-N-methyl-N-(4-methylphenethyl)propiolamide] was 280 nM. Compound `O=C(C#Cc1cccc(Cl)c1)NCCn1cccc1` [Example 230, N-(2-(1H-pyrrol-1-yl)ethyl)-3-(3-chlorophenyl)propiolamide] registered an IC50 of 190 nM.

Compound `O=C(C#Cc1cccc(Cl)c1)NCCn1cccn1` [Example 231, N-(2-(1H-pyrazol-1-yl)ethyl)-3-(3-chlorophenyl)propiolamide] registered a half-maximal inhibitory concentration (IC50) of 140 nM.

`CN(CCn1cccc1)C(=O)C#Cc1cccc(Cl)c1` [Example 233, N-(2-(1H-pyrrol-1-yl)ethyl)-3-(3-chlorophenyl)-N-methylpropiolamide]: the IC50 came to 31 nM. The same measure, in the same setting: the result for `CN(CCn1cccn1)C(=O)C#Cc1cccc(Cl)c1` [Example 234, N-(2-(1H-pyrazol-1-yl)ethyl)-3-(3-chlorophenyl)-N-methylpropiolamide] reads 51 nM; that for `O=C(C#Cc1cccc(Cl)c1)NCCc1cccnc1` [Example 235, 3-(3-chlorophenyl)-N-(2-(pyridine-3-yl)ethyl)propiolamide], 7 nM. Still for that read-out and setting: the result for `CN(CCc1ccccn1)C(=O)C#Cc1cccc(Cl)c1` [Example 236, 3-(3-chlorophenyl)-N-methyl-N-(2-(pyridine-2-yl)ethyl)propiolamide] reads 29 nM. Same read-out and setting: the result for `CCN(CCc1ccccc1)C(=O)C#Cc1cccc(Cl)c1` [Example 237, 3-(3-chlorophenyl)-N-ethyl-N-phenethylpropiolamide] reads 44 nM; that for `CC(C)N(CCc1ccccc1)C(=O)C#Cc1cccc(Cl)c1` [Example 238, 3-(3-chlorophenyl)-N-isopropyl-N-phenethylpropiolamide], 70 nM; that for `O=C(C#Cc1cccc(Cl)c1)N(CCc1ccccc1)C1CC1` [Example 239, 3-(3-chlorophenyl)-N-cyclopropyl-N-phenethylpropiolamide], 280 nM. Regarding `COc1ccccc1CCN(C)C(=O)C#Cc1cccc(Cl)c1` [Example 240, 3-(3-chlorophenyl)-N-(2-methoxyphenethyl)-N-methylpropiolamide], half-maximal inhibition (IC50) was put at 12 nM. Still for that read-out and setting: the result for `CC(Cc1ccccc1)N(C)C(=O)C#Cc1cccc(Cl)c1` (stereo not drawn) [Example 241, 3-(3-chlorophenyl)-N-methyl-N-(1-phenylpropane-2-yl)propiolamide] reads 13 nM.

Compound `CC(Cc1ccccc1)NC(=O)C#Cc1cccc(Cl)c1` (stereo not drawn) [Example 242, 3-(3-chlorophenyl)-N-(1-phenylpropane-2-yl)propiolamide] came in with a concentration for half-maximal inhibition (IC50) of 2 nM. On the same count and under the same terms, the value for `CN(CCc1cccnc1)C(=O)C#Cc1cccc(Cl)c1` [Example 243, 3-(3-chlorophenyl)-N-methyl-N-(2-(pyridine-3-yl)ethyl)propiolamide] was 12 nM; that for `CN(CCc1ccncc1)C(=O)C#Cc1cccc(Cl)c1` [Example 244, 3-(3-chlorophenyl)-N-methyl-N-(2-(pyridine-4-yl)ethyl)propiolamide] was 23 nM; that for `CN(CCc1cccs1)C(=O)C#Cc1cccc(Cl)c1` [Example 245, 3-(3-chlorophenyl)-N-methyl-N-(2-(thiophene-2-yl)ethyl)propiolamide] was 11 nM. The compound `CC(Cc1cccnc1)NC(=O)C#Cc1cccc(Cl)c1` (stereo not drawn) [Example 246, 3-(3-chlorophenyl)-N-(1-(pyridine-3-yl)propane-2-yl)propiolamide] showed a 50% inhibitory concentration (IC50) of 10 nM.

Compound `CC(Cc1cccnc1)N(C)C(=O)C#Cc1cccc(Cl)c1` (stereo not drawn) [Example 247, 3-(3-chlorophenyl)-N-methyl-N-(1-(pyridine-3-yl)propane-2-yl)propiolamide] registered an IC50 of 140 nM. For the compound `Cc1ncccc1CCNC(=O)C#Cc1cccc(Cl)c1` [Example 248, 3-(3-chlorophenyl)-N-(2-(2-methylpyridine-3-yl)ethyl)propiolamide], the IC50 turned out to be 260 nM. Still for that read-out and setting: the result for `Cc1ncccc1CCN(C)C(=O)C#Cc1cccc(Cl)c1` [Example 249, 3-(3-chlorophenyl)-N-methyl-N-(2-(2-methylpyridine-3-yl)ethyl)propiolamide] reads 120 nM; that for `O=C(C#Cc1cccc(Cl)c1)NCCc1ccccc1C(F)(F)F` [Example 250, 3-(3-chlorophenyl)-N-(2-(trifluoromethyl)phenethyl)propiolamide], 33 nM. On the same count and under the same terms, the result for `CN(CCc1ccccc1C(F)(F)F)C(=O)C#Cc1cccc(Cl)c1` [Example 251, 3-(3-chlorophenyl)-N-methyl-N-(2-(trifluormethyl)phenethyl)propiolamide] reads 28 nM.
